The values that follow are results of earlier work, collected in patent publication US20250235554A1, “METHODS FOR IMPROVING ADENO-[…] (AAV) […]” (Novartis AG, priority 2021, published 2025).

The data set deals with glymphatic flow. As to conditions: mice and rats.

On to `Cc1cccc([C@H](C)c2cnc[nH]2)c1C` [Dexmedetomidine], for which the “effect on brain and spinal cord exposure of intrathecally administered drugs” value was “increases brain and spinal cord drug exposure of intrathecally administered drugs”.
